Series [1] concerns the target T1, human recombinant GIP receptor (Homo sapiens, UniProt P48546).
T1 construct: expressed in transfected cells; host or cells: CHO-K1 clonal cells (membrane preparation)
T1 sequence (P48546 22-466): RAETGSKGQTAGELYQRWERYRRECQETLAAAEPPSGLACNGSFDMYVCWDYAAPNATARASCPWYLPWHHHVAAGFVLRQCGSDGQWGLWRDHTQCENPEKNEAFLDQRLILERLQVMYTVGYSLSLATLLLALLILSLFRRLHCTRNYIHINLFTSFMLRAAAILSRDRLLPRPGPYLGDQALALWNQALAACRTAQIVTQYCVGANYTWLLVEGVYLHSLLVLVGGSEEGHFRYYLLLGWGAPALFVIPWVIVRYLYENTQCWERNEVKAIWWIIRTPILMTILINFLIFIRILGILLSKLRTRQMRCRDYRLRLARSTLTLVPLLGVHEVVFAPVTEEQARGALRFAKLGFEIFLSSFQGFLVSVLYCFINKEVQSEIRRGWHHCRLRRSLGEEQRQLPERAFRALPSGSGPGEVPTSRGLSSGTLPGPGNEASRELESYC
The experiment in a line: In vitro hGIP receptor binding assay. Here is the method: A. In Vitro hGIP Receptor Binding Assay […] The incubations were terminated by rapid filtration through GF/C filters (pre-soaked in 0.5% polyethylenimine) using a Brandel filtration manifold. Each tube and filter were then washed three times with 5-ml aliquots of ice-cold buffer.

The nature of series [2]: Human plasma half-life assay. The series is classed as in vitro ADME. The note with it: 37° C., LC-MS, read-out: Human Plasma T½ (converted). Here is the method: (§1) B. Human and Rat Plasma Half-Life Assay
(§2) 50 μl was removed at various times, like at 0, 1, 2, 3, 4, 8, 24, 32, 48, 56, 72 hours, mixed with 5 μl formic acid and 150 μL acetonitrile in a microcentrifuge tube, vertexed, and centrifuged for 10 minutes at 10 K rpm. The supernatant was transferred to an injection vial and analyzed by LC-MS. The LC-MS system consisted of an API4000 mass spectrometer with an ESI probe. Positive ion mode and full scan detection were used. HPLC separation was carried out on a Luna 3μ. C8 (2), 2×30 mm column with a gradient from 90% A to 90% B in 10 minutes at a flow rate of 0.3 ml/min. Buffer A was 1% formic acid in water and buffer B was 1% formic acid acetonitrile.

Series [3] is described as follows: Rat plasma half-life assay. The series is classed as in vitro ADME. The note with it: 37° C., LC-MS, read-out: Rat Plasma T½ (converted). The protocol: as §1, §2

Where a SMILES comes first, the peptide text is derived from it. Where no end group is shown, it is not given here. [ ]: non-standard residue; d: D form. The star is where a group is joined. Tyr(3-OMe) = COc1cc(C[C@H](N)C(=O)O)ccc1O; Desaminotyrosyl = O=C(CCc1ccc(O)cc1)*; Nle = CCCC[C@H](N)C(=O)O; Ac5c = NC1(C(=O)O)CCCC1; Aib = CC(C)(N)C(=O)O

For the compound `CCCC[C@H](NC(=O)[C@H](C)NC(=O)[C@@H](NC(=O)[C@H](CO)NC(=O)[C@H](Cc1ccc(O)cc1)NC(=O)[C@H](CC(=O)O)NC(=O)[C@H](CO)NC(=O)[C@@H](NC(=O)[C@H](Cc1ccccc1)NC(=O)[C@@H](NC(=O)CNC(=O)[C@H](CCC(=O)O)NC(=O)C(C)(C)NC(=O)CCc1ccc(O)cc1)[C@@H](C)O)[C@@H](C)CC)[C@@H](C)CC)C(=O)N[C@@H](CC(=O)O)C(=O)N[C@@H](CCCCN)C(=O)N[C@H](C(=O)N[C@@H](Cc1c[nH]cn1)C(=O)N[C@@H](CCC(N)=O)C(=O)N[C@@H](CCC(N)=O)C(=O)N[C@@H](CC(=O)O)C(=O)N[C@@H](Cc1ccccc1)C(=O)N[C@H](C(=O)N[C@@H](CC(N)=O)C(=O)N[C@@H](Cc1c[nH]c2ccccc12)C(=O)N[C@@H](CC(C)C)C(=O)N[C@@H](CC(C)C)C(=O)N[C@@H](C)C(=O)N[C@@H](CCC(N)=O)C(=O)N[C@@H](CCCCN)C(N)=O)C(C)C)[C@@H](C)CC` [Example 5, (4Hppa^1, Aib^2, Nle^14)hGIP(1-30)-NH2] (Desaminotyrosyl-[Aib]EGTFISDYSIA[Nle]DKIHQQDFVNWLLAQK-NH2), in series [1], the Ki was found to be 2.95 nM. Moreover, the half-life at 0.1 mg/ml in series [2] was 50.6 h; in series [3], 83.5 h.
In the case of `CCCC[C@H](NC(=O)[C@H](C)NC(=O)[C@@H](NC(=O)[C@H](CO)NC(=O)[C@H](Cc1ccc(O)cc1)NC(=O)[C@H](CC(=O)O)NC(=O)[C@H](CO)NC(=O)[C@@H](NC(=O)[C@H](Cc1ccccc1)NC(=O)[C@@H](NC(=O)CNC(=O)[C@@H]1CCCN1C(=O)C(C)(C)NC(=O)CCc1ccc(O)cc1)[C@@H](C)O)[C@@H](C)CC)[C@@H](C)CC)C(=O)N[C@@H](CC(=O)O)C(=O)N[C@@H](CCCCN)C(=O)N[C@H](C(=O)N[C@@H](Cc1c[nH]cn1)C(=O)N[C@@H](CCC(N)=O)C(=O)N[C@@H](CCC(N)=O)C(=O)N[C@@H](CC(=O)O)C(=O)N[C@@H](Cc1ccccc1)C(=O)N[C@H](C(=O)N[C@@H](CC(N)=O)C(=O)N[C@@H](Cc1c[nH]c2ccccc12)C(=O)N[C@@H](CC(C)C)C(=O)N[C@@H](CC(C)C)C(=O)N[C@@H](C)C(=O)N[C@@H](CCC(N)=O)C(=O)N[C@@H](CCCCN)C(N)=O)C(C)C)[C@@H](C)CC` [Example 9, (4Hppa^1, Aib^2, hPro^3, Nle^14)hGIP(1-30)-NH2] (Desaminotyrosyl-[Aib]PGTFISDYSIA[Nle]DKIHQQDFVNWLLAQK-NH2), the half-life was 26.5 h in series [2] and 14 h in series [3].
With `CCCC[C@H](NC(=O)C(C)(C)NC(=O)[C@@H](NC(=O)[C@H](CO)NC(=O)[C@H](Cc1ccc(O)cc1)NC(=O)[C@H](CC(=O)O)NC(=O)[C@H](CO)NC(=O)[C@@H](NC(=O)[C@H](Cc1ccccc1)NC(=O)[C@@H](NC(=O)CNC(=O)[C@H](CCC(=O)O)NC(=O)C(C)(C)NC(=O)[C@@H](N)Cc1c[nH]cn1)[C@@H](C)O)[C@@H](C)CC)[C@@H](C)CC)C(=O)N[C@@H](CC(=O)O)C(=O)N[C@@H](CCCCN)C(=O)N[C@H](C(=O)N[C@@H](Cc1c[nH]cn1)C(=O)N[C@@H](CCC(N)=O)C(=O)N[C@@H](CCC(N)=O)C(=O)N[C@@H](CC(=O)O)C(=O)N[C@@H](Cc1ccccc1)C(=O)N[C@H](C(=O)N[C@@H](CC(N)=O)C(=O)N[C@@H](Cc1c[nH]c2ccccc12)C(=O)N[C@@H](CC(C)C)C(=O)N[C@@H](CC(C)C)C(=O)N[C@@H](C)C(=O)N[C@@H](CCC(N)=O)C(=O)N[C@@H](CCCCN)C(=O)NCC(=O)N[C@@H](CCCCN)C(=O)N[C@@H](CCCCN)C(=O)N[C@@H](CC(N)=O)C(=O)N[C@@H](CC(=O)O)C(=O)N[C@@H](Cc1c[nH]c2ccccc12)C(=O)N[C@@H](CCCCN)C(=O)N[C@@H](Cc1c[nH]cn1)C(=O)N[C@@H](CC(N)=O)C(=O)N[C@H](C(=O)N[C@H](C(=O)N[C@@H](CCC(N)=O)C(=O)O)[C@@H](C)O)[C@@H](C)CC)C(C)C)[C@@H](C)CC` [Example 10, (His^1, Aib^2, 13, Nle^14)hGIP(1-42)-OH], the Ki in series [1] came to 3.33 nM. Besides, the values for the half-life at 0.1 mg/ml in series [2] and in series [3] were 71.4 h and 9.2 h, respectively.
With `CCCC[C@H](NC(=O)[C@H](C)NC(=O)[C@@H](NC(=O)C1(NC(=O)[C@H](Cc2ccc(O)cc2)NC(=O)[C@H](CC(=O)O)NC(=O)[C@H](CO)NC(=O)[C@@H](NC(=O)[C@H](Cc2ccccc2)NC(=O)[C@@H](NC(=O)CNC(=O)[C@H](CCC(=O)O)NC(=O)C(C)(C)NC(=O)[C@@H](N)Cc2c[nH]cn2)[C@@H](C)O)[C@@H](C)CC)CCCC1)[C@@H](C)CC)C(=O)N[C@@H](CC(=O)O)C(=O)N[C@@H](CCCCN)C(=O)N[C@H](C(=O)N[C@@H](Cc1c[nH]cn1)C(=O)N[C@@H](CCC(N)=O)C(=O)N[C@@H](CCC(N)=O)C(=O)N[C@@H](CC(=O)O)C(=O)N[C@@H](Cc1ccccc1)C(=O)N[C@H](C(=O)N[C@@H](CC(N)=O)C(=O)N[C@@H](Cc1c[nH]c2ccccc12)C(=O)N[C@@H](CC(C)C)C(=O)N[C@@H](CC(C)C)C(=O)N[C@@H](C)C(=O)N[C@@H](CCC(N)=O)C(=O)N[C@@H](CCCCN)C(=O)NCC(=O)N[C@@H](CCCCN)C(=O)N[C@@H](CCCCN)C(=O)N[C@@H](CC(N)=O)C(=O)N[C@@H](CC(=O)O)C(=O)N[C@@H](Cc1c[nH]c2ccccc12)C(=O)N[C@@H](CCCCN)C(=O)N[C@@H](Cc1c[nH]cn1)C(=O)N[C@@H](CC(N)=O)C(=O)N[C@H](C(=O)N[C@H](C(=O)N[C@@H](CCC(N)=O)C(=O)O)[C@@H](C)O)[C@@H](C)CC)C(C)C)[C@@H](C)CC` [Example 12, (His^1, Aib^2, A5c^11, Nle^14)hGIP(1-42)-OH], the Ki in series [1] turned out to be 3.18 nM. For the same compound, the half-life at 0.1 mg/ml in series [2] was 82.5 h; in series [3] it was 11 h.
As for `CCCC[C@H](NC(=O)[C@H](C)NC(=O)[C@@H](NC(=O)C1(NC(=O)[C@H](Cc2ccc(O)cc2)NC(=O)[C@H](CC(=O)O)NC(=O)[C@H](CO)NC(=O)[C@@H](NC(=O)[C@H](Cc2ccccc2)NC(=O)[C@@H](NC(=O)CNC(=O)[C@H](CCC(=O)O)NC(=O)C(C)(C)NC(=O)[C@@H](N)Cc2cc(Br)c(O)c(Br)c2)[C@@H](C)O)[C@@H](C)CC)CCCC1)[C@@H](C)CC)C(=O)N[C@@H](CC(=O)O)C(=O)N[C@@H](CCCCN)C(=O)N[C@H](C(=O)N[C@@H](Cc1c[nH]cn1)C(=O)N[C@@H](CCC(N)=O)C(=O)N[C@@H](CCC(N)=O)C(=O)N[C@@H](CC(=O)O)C(=O)N[C@@H](Cc1ccccc1)C(=O)N[C@H](C(=O)N[C@@H](CC(N)=O)C(=O)N[C@@H](Cc1c[nH]c2ccccc12)C(=O)N[C@@H](CC(C)C)C(=O)N[C@@H](CC(C)C)C(=O)N[C@@H](C)C(=O)N[C@@H](CCC(N)=O)C(=O)N[C@@H](CCCCN)C(=O)NCC(=O)N[C@@H](CCCCN)C(=O)N[C@@H](CCCCN)C(=O)N[C@@H](CC(N)=O)C(=O)N[C@@H](CC(=O)O)C(=O)N[C@@H](Cc1c[nH]c2ccccc12)C(=O)N[C@@H](CCCCN)C(=O)N[C@@H](Cc1c[nH]cn1)C(=O)N[C@@H](CC(N)=O)C(=O)N[C@H](C(=O)N[C@H](C(=O)N[C@@H](CCC(N)=O)C(=O)O)[C@@H](C)O)[C@@H](C)CC)C(C)C)[C@@H](C)CC` [Example 13, (3,5Br-Tyr^1, Aib^2, A5c^11, Nle^14)hGIP(1-42)-OH], in series [1], the Ki amounted to 21.8 nM. Further, the half-life at 0.1 mg/ml in series [2] is 50.6 h; in series [3], 13.1 h.
For “[Tyr(3-OMe)][Aib]EGTFISDY[Ac5c]IA[Ac5c]DKIHQQDFVNWLLAQKGKKNDWKHNI[Ac5c]QH-OH [Example 75, (3MeO-Tyr^1, Aib^2, A5c^11, 14, His^43)hGIP(1-43)-OH]”, the half-life was over 60 h in series [2] and 18.6 h in series [3].

What is called Ki is the equilibrium dissociation constant of an inhibitor or competing ligand from its target.

The values are drawn from patent publication US8999940B2 (Ipsen Pharma S.A.S., priority 2008, dated 2015).
